Measurements as given in patent publication US20230203098A1, “HUMAN TRANSFERRIN RECEPTOR BINDING PEPTIDE” (priority 2020, published 2023).
pKd: −log10 of the molar value. Where two headings read alike, the source gives them in different places. Values belong to the molecule of their own block, whether it stands above or below them. *1 amine or outer side, *2 acyl side, *3 side chain or, on linkers, in order; H or OH if unused. Where a SMILES comes first, the peptide text is derived from it. Bridges are numbered along the chain shown (N, C = ends). [ ]: non-standard residue; d: D form. The star is where a group is joined. X2 = O=C(O)c1cc(C(=O)*)ccc1-c1c2ccc(=O)cc-2oc2cc(O)ccc12; Trp(1-CH2COOH) = N[C@@H](Cc1cn(CC(=O)O)c2ccccc12)C(=O)O; PEG12 = NCCOCCOCCOCCOCCOCCOCCOCCOCCOCCOCCOCCOCCC(=O)O; X5 = O=C([C@H](Cc1cn(CCO)c2ccccc12)N[*:1])[*:2]; NMePhe(3-Cl) = CN[C@@H](Cc1cccc(Cl)c1)C(=O)O; NMeW = CN[C@@H](Cc1c[nH]c2ccccc12)C(=O)O; X4 = O=C1C=CC(=O)N1CC1CCC(C(=O)*)CC1; NMeY = CN[C@@H](Cc1ccc(O)cc1)C(=O)O; NMeF = CN[C@@H](Cc1ccccc1)C(=O)O; PEG4 = NCCOCCOCCOCCOCCC(=O)O; dOrn = NCCC[C@@H](N)C(=O)O; Aib = CC(C)(N)C(=O)O

Target: transferrin receptor (hTfR) (Homo sapiens, UniProt P02786)
Sequence (P02786 whole entry): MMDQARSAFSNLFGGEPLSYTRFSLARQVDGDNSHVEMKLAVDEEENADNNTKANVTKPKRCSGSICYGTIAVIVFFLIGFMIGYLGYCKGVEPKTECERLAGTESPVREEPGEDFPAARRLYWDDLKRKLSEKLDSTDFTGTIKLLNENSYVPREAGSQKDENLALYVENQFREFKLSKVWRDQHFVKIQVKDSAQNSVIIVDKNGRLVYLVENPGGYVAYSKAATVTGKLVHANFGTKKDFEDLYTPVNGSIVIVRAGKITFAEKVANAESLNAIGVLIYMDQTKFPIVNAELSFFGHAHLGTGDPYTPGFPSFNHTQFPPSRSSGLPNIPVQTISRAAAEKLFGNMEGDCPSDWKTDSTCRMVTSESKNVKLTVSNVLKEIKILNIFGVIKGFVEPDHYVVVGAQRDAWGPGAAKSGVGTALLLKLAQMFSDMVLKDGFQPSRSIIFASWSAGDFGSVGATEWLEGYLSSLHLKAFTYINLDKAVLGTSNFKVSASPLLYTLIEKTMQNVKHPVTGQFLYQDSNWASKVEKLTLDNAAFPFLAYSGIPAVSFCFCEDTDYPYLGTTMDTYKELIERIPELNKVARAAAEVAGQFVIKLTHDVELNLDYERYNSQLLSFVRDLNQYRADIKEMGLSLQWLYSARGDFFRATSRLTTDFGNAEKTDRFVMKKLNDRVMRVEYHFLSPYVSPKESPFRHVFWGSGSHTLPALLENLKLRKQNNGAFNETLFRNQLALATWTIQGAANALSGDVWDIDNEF
Test: Intermolecular interaction evaluation test between transferrin receptor (hTfR) and peptide by surface plasmon resonance (SPR)
Format: binding
Protocol: For each of the various synthesized peptides, the intermolecular interaction of the peptide with the transferrin receptor (hTfR) was tested by surface plasmon resonance (SPR) according to the following method. The specific test method is as follows.
An NTA sensor chip (Global Life Sciences Technologies Japan) was inserted in a Biacore T200 (Global Life Sciences Technologies Japan) and a prime operation was performed 3 times with a running buffer: 10 mM HEPES pH 8.0 (Nacalai Tesque), 150 mM NaCl (Nacalai Tesque), 0.05% Tween 20 (Nacalai Tesque), 0.1% BSA (Sigma-Aldrich), 1.0% DMSO (FUJIFILM Wako Pure Chemical) to create an Equilibration state at a flow rate of 30 µL/min. After reacting with 350 mM EDTA solution for 60 seconds at a flow rate of 10 µL/min then reacting with 0.5 mM NiCl2 solution (Kishida Chemical) for 60 seconds at a flow rate of 10 µL/min, the NTA sensor chip was washed with 3 mM EDTA solution (Nacalai Tesque) for 60 seconds at a flow rate of 10 µL/min. After mixing 50 µL each of 60 mM EDC solution (Global Life Sciences Technologies Japan) and 650 mM NHS solution (Global Life Sciences Technologies Japan), the mixture was reacted for 420 seconds at a flow rate of 10 µL/min. By diluting with the running buffer, 150 µL of 3.2 µM hTfR solution was prepared and used for reaction for 600 seconds at a flow rate of 10 µL/min, thereby immobilizing hTfR on the NTA sensor chip. After immobilization, capping was performed by reacting with 1.0 M ethanolamine aqueous solution (Global Life Sciences Technologies Japan) for 420 seconds at a flow rate of 10 µL/min. A peptide dissolution liquid prepared to 10 mM in the DMSO solution was diluted with the running buffer to a final concentration of 10 µM so as to become the peptide dissolution liquid, then peptide solutions of 100 nM, 50 nM, 25 nM, 10 nM and 5 nM were prepared. Kinetics of the peptide to hTfR was acquired by SPR measurement using the above-mentioned samples. Single-cycle kinetics was used as a kinetic evaluation model and curve fitting was performed using Biacore T200 Evaluation Software Version 3.0 (Global Life Sciences Technologies Japan). An obtained sensorgram was subjected to curve fitting using the least-squares method, and the binding of the peptide to hTfR was evaluated by obtaining KD values. […] A chemical structure of hTfR No. 894 is as follows.
The variant peptides were synthesized according to Example 1 unless otherwise stated in Example 9 or 10. The linker-added peptides were synthesized according to Example 1, except that Fmoc-NH-SAL-PEG resin (Watanabe Chemical Industries) was used as a resin for the peptide synthesis when the linker was PEG. The peptide, to which a peptide, a fatty acid, PEG, or a conjugate thereof is added as a linker, was also synthesized according to Example 1, unless otherwise stated in Example 9 or 10.

[1] = surface plasmon resonance, peptide vs hTfR, read-out: KD value, hTfR binding by SPR (class symbol)
[2] = binding to hTfR by SPR, Table 2 peptides, read-out: KD value (SPR) class
[3] = surface plasmon resonance, hTfR, read-out: KD value for hTfR by SPR (class symbol)

pKd (SPR, peptides, linker-added peptides and FITC conjugates, Patent ID 203-230, read-out: KD): 7.00 to 9.00
Compound: CC[C@H](C)[C@@H]1NC(=O)[C@H](Cc2ccc(OC)cc2)NC(=O)[C@H](Cc2ccc(O)cc2)NC(=O)[C@H](CC(N)=O)NC(=O)[C@H](Cc2c[nH]c3ccccc23)NC(=O)[C@H](C(C)C)NC(=O)[C@H](Cc2cccc(Cl)c2)N(C)C(=O)[C@H](CCC(=O)O)NC(=O)[C@H](C)NC(=O)CSC[C@@H](C(=O)NCC(=O)NCC(=O)N[C@@H](CO)C(=O)NCC(=O)N[C@@H](CO)C(=O)NCC(=O)N[C@@H](CCCCNC(=O)C2CCC(CN3C(=O)C=CC3=O)CC2)C(N)=O)NC(=O)[C@H](Cc2ccc(O)cc2)N(C)C(=O)[C@H](Cc2ccccc2)NC(=O)[C@@H](CCCNC(=N)N)NC(=O)[C@H](CCCNC(=N)N)NC(=O)[C@H]([C@@H](C)CC)NC1=O (stereo partly drawn) [compound 222] ({CH2CO}-AE[NMePhe(3-Cl)]VWNYY(Me)IIR[dR]F[NMeY]CGGSGSGK(X4)-NH2; thioether N-15)

pKd [1]: 6.00 to 7.00
Compound: CC[C@H](C)[C@@H]1NC(=O)[C@H](Cc2ccc(OC)cc2)NC(=O)[C@H](Cc2ccc(O)cc2)NC(=O)[C@H](CC(N)=O)NC(=O)[C@H](Cc2cn(CCO)c3ccccc23)NC(=O)[C@H](C(C)C)NC(=O)[C@H](Cc2cccc(Cl)c2)N(C)C(=O)[C@H](C(C)C)NC(=O)[C@H](C)NC(=O)CSC[C@@H](C(N)=O)NC(=O)[C@H](Cc2ccc(O)cc2)N(C)C(=O)[C@H](Cc2ccccc2)NC(=O)[C@@H](CCCNC(=N)N)NC(=O)C(C)(C)NC(=O)[C@H]([C@@H](C)CC)NC1=O [compound 305] ({CH2CO}-AV[NMePhe(3-Cl)]V[X5]NYY(Me)II[Aib][dR]F[NMeY]C-NH2; thioether N-15)

pKd [1]: 7.00 to 9.00
Compound: CC[C@H](C)[C@@H]1NC(=O)[C@H](Cc2ccc(OC)cc2)NC(=O)[C@H](Cc2ccc(O)cc2)NC(=O)[C@H](CC(N)=O)NC(=O)[C@H](Cc2c[nH]c3ccccc23)N(C)C(=O)[C@H](C(C)C)NC(=O)[C@H](Cc2cccc(Cl)c2)N(C)C(=O)[C@H](C(C)C)NC(=O)[C@H](C)NC(=O)CSC[C@@H](C(=O)NCC(=O)NCC(=O)NCC(=O)NCC(=O)N[C@@H](CO)C(=O)N[C@@H](CO)C(=O)N[C@@H](CS)C(N)=O)NC(=O)[C@H](Cc2ccc(O)cc2)N(C)C(=O)[C@H](Cc2ccccc2)NC(=O)[C@@H](CCCNC(=N)N)NC(=O)[C@H](CCCNC(=N)N)NC(=O)[C@H](CCC(=O)O)NC1=O [compound 342]

pKd (SPR, hTfR, class symbols A-D, read-out: KD): 6.00 to 7.00
Compound: CC[C@H](C)[C@@H]1NC(=O)[C@H](Cc2ccc(O)cc2)NC(=O)[C@H](Cc2ccc(O)cc2)NC(=O)[C@H](CC(N)=O)NC(=O)[C@H](Cc2cn(CC(=O)O)c3ccccc23)NC(=O)[C@H](C(C)C)NC(=O)[C@H](Cc2ccccc2)N(C)C(=O)[C@H](C(C)C)NC(=O)[C@H](C)NC(=O)CSC[C@@H](C(=O)N[C@H](CCC(=O)O)C(N)=O)NC(=O)[C@H](Cc2ccc(O)cc2)N(C)C(=O)[C@H](Cc2ccc(O)cc2)NC(=O)[C@@H](CCCNC(=N)N)NC(=O)[C@H](CCCNC(=N)N)NC(=O)[C@H](CCC(=O)O)NC1=O [compound 473] ({CH2CO}-AV[NMeF]V[Trp(1-CH2COOH)]NYYIER[dR]Y[NMeY]C[dE]-NH2; thioether N-15)

pKd [1]: 7.00 to 9.00
Compound: CC[C@H](C)[C@@H]1NC(=O)[C@H](Cc2ccc(OC)cc2)NC(=O)[C@H](Cc2ccc(O)cc2)NC(=O)[C@H](CC(N)=O)NC(=O)[C@H](Cc2c[nH]c3ccccc23)N(C)C(=O)[C@H](C(C)C)NC(=O)[C@H](Cc2cccc(Cl)c2)N(C)C(=O)[C@H](C(C)C)NC(=O)[C@H](C)NC(=O)CSC[C@@H](C(=O)NCC(=O)N[C@@H](CCCCN=[N+]=[N-])C(N)=O)NC(=O)[C@H](Cc2ccc(O)cc2)N(C)C(=O)[C@H](Cc2ccccc2)NC(=O)[C@@H](CCCNC(=N)N)NC(=O)[C@H](CCCNC(=N)N)NC(=O)[C@H](CCC(=O)O)NC1=O [compound 340]

pKd [1]: 7.00 to 9.00
Compound: CC[C@H](C)[C@@H]1NC(=O)[C@H](Cc2ccc(OC)cc2)NC(=O)[C@H](Cc2ccc(O)cc2)NC(=O)[C@H](CC(N)=O)NC(=O)[C@H](Cc2c[nH]c3ccccc23)N(C)C(=O)[C@H](C(C)C)NC(=O)[C@H](Cc2cccc(Cl)c2)N(C)C(=O)[C@H](C(C)C)NC(=O)[C@H](C)NC(=O)CSC[C@@H](C(=O)NCCOCCOCCOCCOCCC(N)=O)NC(=O)[C@H](Cc2ccc(O)cc2)N(C)C(=O)[C@H](Cc2ccccc2)NC(=O)[C@@H](CCCNC(=N)N)NC(=O)[C@H](CCCNC(=N)N)NC(=O)[C@@H](CCCN)NC1=O [compound 338] ({CH2CO}-AV[NMePhe(3-Cl)]V[NMeW]NYY(Me)I[dOrn]R[dR]F[NMeY]C[PEG4]-NH2; thioether N-15)

pKd [3]: 7.00 to 9.00
Compound: CC[C@H](C)[C@@H]1NC(=O)[C@H](Cc2ccc(OC)cc2)NC(=O)[C@H](Cc2ccc(O)cc2)NC(=O)[C@H](CC(N)=O)NC(=O)[C@H](Cc2c[nH]c3ccccc23)N(C)C(=O)[C@H](C(C)C)NC(=O)[C@H](Cc2cccc(Cl)c2)N(C)C(=O)[C@H](C(C)C)NC(=O)[C@H](C)NC(=O)CSC[C@@H](C(N)=O)NC(=O)[C@H](Cc2ccc(O)cc2)N(C)C(=O)[C@H](CCC(=O)N[C@H](CCC(=O)O)C(=O)O)NC(=O)[C@@H](CCCNC(=N)N)NC(=O)[C@H](CCCNC(=N)N)NC(=O)[C@H]([C@@H](C)CC)NC1=O [compound 391]

Continued, molecule first:

Compound: CC[C@H](C)[C@@H]1NC(=O)[C@H](Cc2ccc(O)cc2)NC(=O)[C@H](Cc2ccc(O)cc2)NC(=O)[C@H](CC(N)=O)NC(=O)[C@H](Cc2c[nH]c3ccccc23)NC(=O)[C@H](C(C)C)NC(=O)[C@H](Cc2ccccc2)NC(=O)[C@H](C(C)C)NC(=O)[C@H](C)NC(=O)CSC[C@@H](C(=O)NCCOCCOCCOCCOCCOCCOCCOCCOCCOCCOCCOCCOCCC(=O)N[C@@H](CCCCNC(=O)c2ccc(-c3c4ccc(=O)cc-4oc4cc(O)ccc34)c(C(=O)O)c2)C(N)=O)NC(=O)[C@H](CCCNC(=N)N)NC(=O)[C@H](Cc2ccccc2)NC(=O)[C@H](CCCNC(=N)N)NC(=O)[C@H](CC(=O)O)NC(=O)[C@H]([C@@H](C)CC)NC1=O [compound 148] ({CH2CO}-AVFVWNYYIIDRFRC[PEG12]K(X2)-NH2; thioether N-15)
pKd (SPR, linker and payload (FITC, VivoTag) conjugates, read-out: KD): 7.00 to 9.00

Compound: CC[C@H](C)[C@@H]1NC(=O)[C@H](Cc2ccc(O)cc2)NC(=O)[C@H](Cc2ccc(O)cc2)NC(=O)[C@H](CC(N)=O)NC(=O)[C@H](Cc2c[nH]c3ccccc23)NC(=O)[C@H](C(C)C)NC(=O)[C@H](Cc2ccccc2)NC(=O)[C@H](C(C)C)NC(=O)[C@H](C)NC(=O)CSC[C@@H](C(N)=O)NC(=O)[C@H](Cc2ccc(O)cc2)N(C)C(=O)[C@H](Cc2ccc(O)cc2)NC(=O)[C@H](CCC(=O)O)NC(=O)[C@H](CCCNC(=N)N)NC(=O)[C@H]([C@@H](C)CC)NC1=O [compound 257]
pKd [2]: 7.00 to 9.00

Compound: CC[C@H](C)[C@@H]1NC(=O)[C@H](Cc2ccc(O)cc2)NC(=O)[C@H](Cc2ccc(O)cc2)NC(=O)[C@H](CC(N)=O)NC(=O)[C@H](Cc2c[nH]c3ccccc23)N(C)C(=O)[C@H](C(C)C)NC(=O)[C@H](Cc2ccccc2)NC(=O)[C@H](C(C)C)NC(=O)[C@H](C)NC(=O)CSC[C@@H](C(N)=O)NC(=O)[C@H](Cc2ccc(O)cc2)N(C)C(=O)[C@H](Cc2ccc(O)cc2)NC(=O)[C@H](CCCNC(=N)N)NC(=O)[C@H](CCCNC(=N)N)NC(=O)[C@H]([C@@H](C)CC)NC1=O [compound 263]
pKd [2]: > 9.00

Compound: CC[C@H](C)[C@@H]1NC(=O)[C@H](Cc2ccc(O)cc2)NC(=O)[C@H](Cc2ccc(O)cc2)NC(=O)[C@H](CC(N)=O)NC(=O)[C@H](Cc2c[nH]c3ccccc23)NC(=O)[C@H](C(C)C)NC(=O)[C@H](Cc2ccccc2)NC(=O)[C@H](C(C)C)NC(=O)[C@H](C)NC(=O)CSC[C@@H](C(N)=O)NC(=O)[C@H](Cc2ccc(O)cc2)N(C)C(=O)[C@H](Cc2ccc(O)cc2)NC(=O)[C@H](CCCNC(=N)N)NC(=O)[C@H](CCCNC(=N)N)NC(=O)[C@H](CCC(=O)O)NC1=O [compound 247]
pKd [2]: 7.00 to 9.00

Compound: CC[C@H](C)[C@@H]1NC(=O)[C@H](Cc2ccc(OC)cc2)NC(=O)[C@H](Cc2ccc(O)cc2)NC(=O)[C@H](CC(N)=O)NC(=O)[C@H](Cc2c[nH]c3ccccc23)N(C)C(=O)[C@H](C(C)C)NC(=O)[C@H](Cc2cccc(Cl)c2)N(C)C(=O)[C@H](C(C)C)NC(=O)[C@H](C)NC(=O)CSC[C@@H](C(=O)N[C@H](CCC(=O)O)C(=O)N(C)CC(=O)N[C@H](CCC(=O)O)C(N)=O)NC(=O)[C@H](Cc2ccc(O)cc2)N(C)C(=O)[C@H](Cc2ccccc2)NC(=O)[C@@H](CCCNC(=N)N)NC(=O)C(C)(C)NC(=O)[C@H]([C@@H](C)CC)NC1=O [compound 357]
pKd [3]: 7.00 to 9.00
